For assay [1], the system named is phosphorylated ERK downstream of KRAS G12C in MIA PaCa2 cells. Description: Cell p-ERK detection experiment (HTRF) in MIA PaCa2. Conditions: Homo sapiens, MIA PaCa-2, 2 h, MIA PaCa2 cells, 2 hours with compound, Advance ERK phospho-T202/Y204 HTRF kit; read-out: p-ERK IC50. The class given is cell-based, human. Summed up:
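Phospho-ERK (T202/Y204) measured by HTRF after 30 min lysis and 4 h antibody incubation in MIA PaCa2 (KRAS G12C) cells, seeded at 2.5E4 per well and treated 2 h with compounds in 3.16-fold steps, final DMSO 0.1%. IC50 from a four-parameter fit of percent inhibition relative to DMSO and blank wells.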

Assay [2] addresses T1, KRAS G12C (Homo sapiens, UniProt P01116, G12C).
T1 construct: purchased Reactionbiology
Description: KRAS G12C NEA-HTRF experiment (SOS1-catalyzed displacement of GDP by GTP). The assay is classed as biochemical. Summed up: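 His-tagged KRAS G12C preloaded with DY647-GDP was preincubated 15 min at 20 °C with compound, then exchanged with SOS1 (0.2 μM working solution) and GTP (200 μM working solution) for 2 h at 20 °C in the dark. HTRF 665/615 nm ratio with anti-His-Tb was normalised to T0 and no-compound controls; IC50 by four-parameter fit.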

The results in this text go back to patent publication US20230203060A1 (GENFLEET THERAPEUTICS (SHANGHAI) INC., priority 2020, published 2023).

T1 sequence (P01116 1-188 isoform P01116-2 G12C): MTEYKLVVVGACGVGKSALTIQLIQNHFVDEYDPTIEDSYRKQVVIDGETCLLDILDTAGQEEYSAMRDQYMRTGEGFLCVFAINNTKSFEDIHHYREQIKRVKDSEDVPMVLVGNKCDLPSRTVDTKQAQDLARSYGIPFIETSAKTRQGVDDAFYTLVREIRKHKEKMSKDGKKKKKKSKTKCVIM

For the compound `C=CC(=O)N1CCN2C(=O)c3c(N4CCN(C)C[C@@H]4C)nc(-c4c(F)cccc4Cl)c(Cl)c3OC[C@H]2C1` [Z547, (6aR)-8-acryloyl-4-chloro-3-(2-chloro-6-fluorophenyl)-1-((S)-2,4-dimethylpiperazin-1-yl)-6,6a,7,8,9,10-hexahydro-12H-pyrazino[2,1-c]pyrido[3,4-f][1,4]oxazepin-12-one], the IC50 in assay [1] came out at 0.135 µM; in assay [2] it was 0.139 µM.

As to `C=CC(=O)N1CCN2C(=O)c3c(N4CCN(C)[C@@H](C)[C@@H]4C)nc(-c4ccccc4F)c(Cl)c3OC[C@H]2C1` [Z653, (R)-8-acryloyl-4-chloro-3-(2-fluorophenyl)-1-((2S,3S)-2,3,4-trimethylpiperazin-1-yl)-6,6a,7,8,9,10-hexahydro-12H-pyrazino[2,1-c]pyrido[3,4-f][1,4]oxazepin-12 (6aH)-one], the IC50 in assay [1] came to 0.184 µM; in assay [2], 0.298 µM.

Turning to `C=CC(=O)N1CCN2C(=O)c3c(N4C[C@H](N5CC(F)C5)CC4(C)C)nc(-c4ccccc4F)c(F)c3OC[C@H]2C1` [Z654-2, (R)-8-acryloyl-4-fluoro-1-((R)-4-(3-fluoroazetidin-1-yl)-2,2-dimethylpyrrolidin-1-yl)-3-(2-fluorophenyl)-6,6a,7,8,9,10-hexahydro-12H-pyrazino[2,1-c]pyrido[3,4-f][1,4]oxazepin-12-one], the 50% inhibitory concentration (IC50) in assay [1] turned out to be 0.167 µM; in assay [2], 0.168 µM.

For `C=CC(=O)N1CCN2C(=O)c3c(N4CC(N(C)CCO)CC4(C)C)nc(-c4ccccc4F)c(Cl)c3OC[C@H]2C1` (stereo partly drawn) [Z658, (6aR)-8-acryloyl-4-chloro-3-(2-fluorophenyl)-1-(4-((2-hydroxyethyl)(methyl)amino)-2,2-dimethylpyrrolidin-1-yl)-6,6a,7,8,9,10-hexahydro-12H-pyrazino[2,1-c]pyrido[3,4-f][1,4]oxazepin-12-one], the half-maximal inhibitory concentration (IC50) came to 0.024 µM in assay [1] and 0.0284 µM in assay [2].

With `C=CC(=O)N1CCN2C(=O)c3c(N4CC(NC)CC4(C)C)nc(-c4ccccc4F)c(Cl)c3OC[C@H]2C1` (stereo partly drawn) [Z661, (6aR)-8-acryloyl-4-chloro-1-(2,2-dimethyl-4-(methylamino)pyrrolidin-1-yl)-3-(2-fluorophenyl)-6,6a,7,8,9,10-hexahydro-12H-pyrazino[2,1-c]pyrido[3,4-f][1,4]oxazepin-12-one], the IC50 worked out at 0.029 µM in assay [1] and 0.0329 µM in assay [2].
